For the test, the target named is T1, human PPARγ1 (Homo sapiens, UniProt P37231).
T1 construct: expressed in transfected cells; host or cells: CHO-K1 cells stably transfected with pVgRXR2-hPPARγ and reporter plasmid pGL3-4ERPP-TK neo
T1 sequence (P37231 1-477 isoform P37231-2): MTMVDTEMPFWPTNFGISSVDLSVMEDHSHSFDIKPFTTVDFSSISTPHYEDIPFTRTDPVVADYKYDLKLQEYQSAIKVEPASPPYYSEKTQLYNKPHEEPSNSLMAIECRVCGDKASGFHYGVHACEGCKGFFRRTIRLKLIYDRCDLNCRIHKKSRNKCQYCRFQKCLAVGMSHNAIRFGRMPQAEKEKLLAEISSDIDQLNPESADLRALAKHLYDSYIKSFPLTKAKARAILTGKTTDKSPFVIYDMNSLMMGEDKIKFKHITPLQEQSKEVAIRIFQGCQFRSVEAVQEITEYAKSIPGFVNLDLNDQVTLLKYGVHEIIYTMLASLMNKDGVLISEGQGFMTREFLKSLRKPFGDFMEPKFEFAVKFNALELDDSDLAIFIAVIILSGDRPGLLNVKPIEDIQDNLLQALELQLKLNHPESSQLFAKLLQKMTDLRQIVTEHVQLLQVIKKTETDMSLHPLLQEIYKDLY
T1 sequence (P19793 1-462 partner): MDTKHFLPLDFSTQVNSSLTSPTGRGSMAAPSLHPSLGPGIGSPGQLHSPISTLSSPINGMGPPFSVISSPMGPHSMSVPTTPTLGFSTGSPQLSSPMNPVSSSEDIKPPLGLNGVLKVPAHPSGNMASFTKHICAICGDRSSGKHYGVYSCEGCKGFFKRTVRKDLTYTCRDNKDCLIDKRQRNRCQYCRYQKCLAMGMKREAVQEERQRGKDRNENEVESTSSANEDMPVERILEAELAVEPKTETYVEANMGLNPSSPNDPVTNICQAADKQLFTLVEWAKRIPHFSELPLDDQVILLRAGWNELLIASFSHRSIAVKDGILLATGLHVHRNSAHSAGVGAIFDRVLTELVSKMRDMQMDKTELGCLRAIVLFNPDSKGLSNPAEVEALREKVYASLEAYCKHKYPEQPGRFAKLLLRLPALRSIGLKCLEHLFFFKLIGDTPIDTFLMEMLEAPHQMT
As to the kind of experiment: Human PPARγ1 antagonist assay (luciferase reporter in PPARγ:RXRα:4ERPP/CHO-K1 cells). The test is classed as cell-based. The conditions noted are these: 10 nM compound A as stimulant, luciferase activity, 24 hrs, read-out: Inhibitory rate (%); for inhibition at 1 µM: test compound 10^−6 M. As to the method:
PPARγ:RXRα:4ERPP/CHO-K1 cells (obtained in Reference Example 5a) cultured in Ham's F-12 medium (GIBCO, Inc.) supplemented with 10% fetal bovine serum (TRACE SCIENTIFIC, Ltd.) were seeded in a well of a 96 well white plate at 2×10^4 cells/well and cultured under 37° C. 5% CO2 conditions for 24 hrs. After removal of the medium, Ham's F-12 medium (GIBCO) containing 60 μl of 0.1% BSA (not containing fatty acid) (Wako Pure Chemical Industries, Ltd.), 20 μl of 10^−5M or 10^−6 M test compound and 20 μl of compound A having a final concentration of 10 nM as a stimulant were added, and the cells were cultured under 37° C. 5% CO2 conditions for 24 hrs. After removal of the medium, 40 μl of Pickagene LT7.5 (Wako Pure Chemical Industries, Ltd.) 2-fold diluted with HBSS (HANKS' BALANCED SALT SOLUTION) (BIO WHITTAKER Inc.) was added. After stirring, luciferase activity was measured using 1420 ARVO Multilabel Counter (Wallac, Inc.). In addition, a test similar to the above was conducted for the non-use of the aforementioned test compound alone and for the non-use of the aforementioned test compound and compound A to determine the luciferase activity.
The human PPARγ1 antagonistic activity of the test compound was evaluated using percentages (% inhibition) wherein the luciferase activity when 10 nM compound A alone was added was 0%, and the luciferase activity when the test compound and compound A were not added was 100%. The concentration of the test compound was 10^−5 M for the compounds of Example 42 and 315 and 10^−6 M for other test compounds.
After a CHO-K1 cell cultured in a cell culture flask (150 cm^2) (produced by Corning Costar Corporation, USA) containing Ham's F-12 medium (produced by Life Technologies, Inc., USA) supplemented with 10% fetal bovine serum (produced by Life Technologies, Inc., USA) was detached by treating with 0.5 g/L trypsin-0.2 g/L EDTA (ethylenediaminetetraacetic acid) (produced by Life Technologies, Inc., USA), the cell was washed with PBS (phosphate-buffered saline) (produced by Life Technologies, Inc., USA), centrifuged (1000 rpm, 5 minutes), and then suspended in PBS. Subsequently, the DNA was introduced into the cells under the conditions shown below using GENE PULSER (produced by Bio-Rad Laboratories, USA).
Namely, to a cuvette having a 0.4 cm gap, added were 8×10^6 cells and 10 μg of plasmid pVgRXR2-hPPARγ obtained in Reference Example 4a and 10 μg of reporter plasmid pGL3-4ERPP-TK neo obtained in Reference Example 2a, which was subjected to electroporation at the voltage of 0.25 kV under the capacitance of 960 μF. Subsequently, the cell was transferred into a Ham's F-12 medium containing 10% fetal bovine serum and cultured for 24 hours and then the cells were detached again and centrifuged, and then suspended in HAM F12 medium containing 10% fetal bovine serum supplemented with 500 μg/ml of GENETICIN (produced by Life Technologies, Inc., USA) and 250 μg/ml of ZEOCIN (produced by Invitrogen, USA). The obtained suspension was diluted to the density of 10^4 cells/ml and inoculated to a 96-well plate (produced by Corning Costar Corporation, USA), which was cultured in a CO2 gas incubator at 37° C., whereby obtaining a GENETICIN- and ZEOCIN-resistant transformant. Subsequently, after the transformant cell line thus obtained was cultured in a 24-well plate (produced by Corning Costar Corporation, USA), selected was a cell line in which the luciferase was expressed and induced, i.e., PPARγ:RXRα:4ERPP/CHO-K1 cell by the addition of 10 μM pioglitazone hydrochloride.
For orientation: Reporter assays use an easily measured gene product as a stand-in for the process of interest.

For `Cc1oc(-c2ccco2)nc1COc1ccc(COc2nn(Cc3ccccc3)cc2C=O)cn1` [Example 42, 1-benzyl-3-[(6-{[2-(2-furyl)-5-methyl-1,3-oxazol-4-yl]methoxy}-3-pyridinyl)methoxy]-1H-pyrazole-4-carbaldehyde], the inhibition at 10 µM (test compound 10^−5 M) was found to be 50%.

As to `CCOC(=O)c1cn(-c2ccccc2)nc1OCc1ccc(OCc2nc(-c3ccco3)oc2C)c(OC)c1` [Example 72, ethyl 3-[(4-{[2-(2-furyl)-5-methyl-1,3-oxazol-4-yl]methoxy}-3-methoxybenzyl)oxy]-1-phenyl-1H-pyrazole-4-carboxylate], the inhibition at 1 µM was 62%.

Consider `COc1cc(COc2nn(-c3ccccc3)cc2CO)ccc1OCc1nc(-c2ccco2)oc1C` [Example 75, {3-[(4-{[2-(2-furyl)-5-methyl-1,3-oxazol-4-yl]methoxy}-3-methoxybenzyl)oxy]-1-phenyl-1H-pyrazol-4-yl}methanol], for which the inhibition at 1 µM was 70%.

`COc1cc(COc2nn(-c3ccccc3)cc2C=O)ccc1OCc1nc(-c2ccco2)oc1C` [Example 76, 3-[(4-{[2-(2-furyl)-5-methyl-1,3-oxazol-4-yl]methoxy}-3-methoxybenzyl)oxy]-1-phenyl-1H-pyrazole-4-carbaldehyde]: the inhibition at 1 µM was found to be 63%.

On to `COc1cc(COc2nn(-c3ccccc3)cc2C#N)ccc1OCc1nc(-c2ccco2)oc1C` [Example 77, 3-[(4-{[2-(2-furyl)-5-methyl-1,3-oxazol-4-yl]methoxy)-3-methoxybenzyl)oxy]-1-phenyl-1H-pyrazole-4-carbonitrile], for which the inhibition at 1 µM was found to be 51%.

For `CCOP(=O)(CCc1cn(-c2ccccc2)nc1OCc1ccc(OCc2nc(-c3ccco3)oc2C)c(OC)c1)OCC` [Example 100, diethyl 2-{3-[(4-{[2-(2-furyl)-5-methyl-1,3-oxazol-4-yl]methoxy}-3-methoxybenzyl)oxy]-1-phenyl-1H-pyrazol-4-yl}ethylphosphonate], the inhibition at 1 µM stood at 74%.

As for `CCOP(=O)(/C=C/c1cn(-c2ccccc2)nc1OCc1ccc(OCc2nc(-c3ccco3)oc2C)c(OC)c1)OCC` [Example 116 (E form), diethyl (E)-2-{3-[(4-{[2-(2-furyl)-5-methyl-1,3-oxazol-4-yl]methoxy}-3-methoxybenzyl)oxy]-1-phenyl-1H-pyrazol-4-yl}ethenylphosphonate], the inhibition at 1 µM was 97%.

On to `COc1cc(COc2nn(-c3ccccc3)cc2/C=C/P(=O)(OC(C)C)OC(C)C)ccc1OCc1nc(-c2ccco2)oc1C` [Example 145, diisopropyl (E)-2-{3-[(4-{[2-(2-furyl)-5-methyl-1,3-oxazol-4-yl]methoxy}-3-methoxybenzyl)oxy]-1-phenyl-1H-pyrazol-4-yl}ethenylphosphonate], for which the inhibition at 1 µM was 96%.

For `CCOP(=O)(/C=C/c1cn(-c2ccccc2)nc1OCc1ccc(OCc2nc(-c3ccccc3)oc2C)c(OC)c1)OCC` [Example 146, diethyl (E)-2-[3-({3-methoxy-4-[(5-methyl-2-phenyl-1,3-oxazol-4-yl)methoxy]benzyl}oxy)-1-phenyl-1H-pyrazol-4-yl]ethenylphosphonate], the inhibition at 1 µM is 111%.

On to `COc1cc(COc2nn(-c3ccccc3)cc2/C=C/c2csc(C)n2)ccc1OCc1nc(-c2ccco2)oc1C` [Example 150 (E form), 2-(2-furyl)-4-({2-methoxy-4-[({4-[(E)-2-(2-methyl-1,3-thiazol-4-yl)ethenyl]-1-phenyl-1H-pyrazol-3-yl}oxy)methyl]phenoxy}methyl)-5-methyl-1,3-oxazole], for which the inhibition at 1 µM is 82%.

Turning to `CCC(=O)/C=C/c1cn(-c2ccccc2)nc1OCc1ccc(OCc2nc(-c3ccco3)oc2C)c(OC)c1` [Example 156, (1E)-1-{3-[(4-{[2-(2-furyl)-5-methyl-1,3-oxazol-4-yl]methoxy}-3-methoxybenzyl)oxy]-1-phenyl-1H-pyrazol-4-yl}-1-penten-3-one], the inhibition at 1 µM came out at 66%.

The record behind these values is patent US7368578B2, “Five-membered heterocyclic compounds” (Takeda Pharmaceutical Company Limited, priority 2002, dated 2008).
